Data: ChEMBL document CHEMBL5370549, “Optimization and evaluation of pyridinyl vinyl sulfones as Nrf2 activator for the antioxidant and anti-inflammatory effects” (Eur J Med Chem, 2023)
pEC50: −log10 of the molar value.

Tests used:
[1] = Metabolic stability of the compound in human liver microsomes assessed as parent compound remaining measured after 30 mins; type: ADME, Microsome; settings: read-out: Stability
CYP1A2 = molecular target: T1, CYP1A2 (Homo sapiens, UniProt P05177); assay: Inhibition of CYP1A2 (unknown origin) assessed as enzyme activity at 10 uM relative to control; type: ADME; set-up: scale not given: the % may be the effect or the level left; settings: read-out: Activity
T1 sequence (P05177 whole entry): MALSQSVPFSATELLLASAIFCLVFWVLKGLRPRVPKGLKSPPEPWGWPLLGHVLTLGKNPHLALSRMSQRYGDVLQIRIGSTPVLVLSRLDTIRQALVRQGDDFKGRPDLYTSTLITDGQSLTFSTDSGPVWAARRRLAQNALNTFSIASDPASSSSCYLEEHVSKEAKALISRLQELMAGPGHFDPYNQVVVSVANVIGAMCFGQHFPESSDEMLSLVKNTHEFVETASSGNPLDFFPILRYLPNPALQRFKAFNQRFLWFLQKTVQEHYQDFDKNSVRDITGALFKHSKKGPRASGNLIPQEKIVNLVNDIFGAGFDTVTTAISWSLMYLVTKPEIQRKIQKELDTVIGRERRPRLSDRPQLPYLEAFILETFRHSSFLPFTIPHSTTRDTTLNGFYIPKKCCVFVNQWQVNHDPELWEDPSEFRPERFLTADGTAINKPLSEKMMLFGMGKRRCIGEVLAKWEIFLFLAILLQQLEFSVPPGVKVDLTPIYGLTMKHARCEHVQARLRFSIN

CYP3A4 = CYP3A4 (Homo sapiens, UniProt P08684); assay: Inhibition of CYP3A4 (unknown origin) assessed as enzyme activity at 10 uM relative to control; type: ADME; set-up: scale not given: the % may be the effect or the level left; settings: read-out: Activity
Sequence of CYP3A4 (P08684 whole entry): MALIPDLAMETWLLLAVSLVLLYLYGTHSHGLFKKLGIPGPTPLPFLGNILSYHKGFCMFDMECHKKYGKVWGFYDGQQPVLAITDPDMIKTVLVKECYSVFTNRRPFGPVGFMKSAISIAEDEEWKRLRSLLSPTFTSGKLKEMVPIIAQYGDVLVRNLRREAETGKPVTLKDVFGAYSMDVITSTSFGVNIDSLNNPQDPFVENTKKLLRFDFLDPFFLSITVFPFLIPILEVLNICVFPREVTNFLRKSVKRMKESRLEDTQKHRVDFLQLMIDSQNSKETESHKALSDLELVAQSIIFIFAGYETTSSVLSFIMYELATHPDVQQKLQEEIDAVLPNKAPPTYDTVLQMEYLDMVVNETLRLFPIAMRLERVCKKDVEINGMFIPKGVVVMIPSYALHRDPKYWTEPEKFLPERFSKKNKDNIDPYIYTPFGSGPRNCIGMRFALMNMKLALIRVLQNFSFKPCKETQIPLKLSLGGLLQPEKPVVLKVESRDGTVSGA

[2] = Metabolic stability of the compound in rat plasma assessed as parent compound remaining measured after 30 mins; type: ADME, cell-free; settings: read-out: Stability
[3] = Metabolic stability of the compound in mouse liver microsomes assessed as parent compound remaining measured after 30 mins; type: ADME, Microsome; settings: read-out: Stability
[4] = molecular target: T2, Nuclear factor erythroid 2-related factor 2 (Homo sapiens, UniProt Q16236); assay: Activation of Nrf2 in human U2OS cells co-expressing Keap1 assessed as induction of Nrf2 nuclear translocation incubated for 6 hrs by PathHunter chemiluminescence based analysis; type: cell-based
T2 sequence (Q16236 whole entry): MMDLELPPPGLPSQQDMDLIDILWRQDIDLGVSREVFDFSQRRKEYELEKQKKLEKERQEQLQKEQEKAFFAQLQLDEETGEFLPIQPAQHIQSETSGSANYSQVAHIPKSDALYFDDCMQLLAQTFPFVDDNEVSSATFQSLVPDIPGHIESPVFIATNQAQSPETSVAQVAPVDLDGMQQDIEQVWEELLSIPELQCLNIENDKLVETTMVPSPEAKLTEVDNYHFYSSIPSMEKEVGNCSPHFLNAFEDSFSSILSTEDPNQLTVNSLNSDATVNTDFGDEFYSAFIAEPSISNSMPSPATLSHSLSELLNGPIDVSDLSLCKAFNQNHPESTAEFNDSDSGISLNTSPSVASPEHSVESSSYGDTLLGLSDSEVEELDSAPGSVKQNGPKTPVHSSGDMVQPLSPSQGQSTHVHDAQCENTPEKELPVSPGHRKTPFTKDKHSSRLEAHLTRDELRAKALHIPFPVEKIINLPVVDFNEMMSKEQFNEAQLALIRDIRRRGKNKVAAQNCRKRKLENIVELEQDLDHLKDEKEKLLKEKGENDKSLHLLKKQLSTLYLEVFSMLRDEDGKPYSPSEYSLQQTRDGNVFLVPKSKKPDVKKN

CYP2D6 = CYP2D6 (Homo sapiens, UniProt P10635); assay: Inhibition of CYP2D6 (unknown origin) assessed as enzyme activity at 10 uM relative to control; type: ADME; set-up: scale not given: the % may be the effect or the level left; settings: read-out: Activity
Sequence of CYP2D6 (P10635 whole entry): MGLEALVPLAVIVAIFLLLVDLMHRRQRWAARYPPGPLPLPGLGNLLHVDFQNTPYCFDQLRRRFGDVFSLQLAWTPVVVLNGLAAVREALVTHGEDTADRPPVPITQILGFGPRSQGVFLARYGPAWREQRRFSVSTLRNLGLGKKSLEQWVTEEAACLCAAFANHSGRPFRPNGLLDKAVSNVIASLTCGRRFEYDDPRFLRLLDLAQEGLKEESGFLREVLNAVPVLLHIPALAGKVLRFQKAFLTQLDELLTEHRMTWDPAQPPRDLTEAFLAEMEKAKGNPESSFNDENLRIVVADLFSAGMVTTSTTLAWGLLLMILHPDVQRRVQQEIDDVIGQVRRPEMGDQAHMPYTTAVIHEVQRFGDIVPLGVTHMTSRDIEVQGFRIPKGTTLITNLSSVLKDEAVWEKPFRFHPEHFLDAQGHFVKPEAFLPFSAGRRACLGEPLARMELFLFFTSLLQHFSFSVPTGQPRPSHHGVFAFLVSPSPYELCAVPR

[5] = Metabolic stability of the compound in human plasma assessed as parent compound remaining measured after 30 mins; type: ADME, cell-free; settings: read-out: Stability
CYP2C19 = CYP2C19 (Homo sapiens, UniProt P33261); assay: Inhibition of CYP2C19 (unknown origin) assessed as enzyme activity at 10 uM relative to control; type: ADME; set-up: scale not given: the % may be the effect or the level left; settings: read-out: Activity
Sequence of CYP2C19 (P33261 whole entry): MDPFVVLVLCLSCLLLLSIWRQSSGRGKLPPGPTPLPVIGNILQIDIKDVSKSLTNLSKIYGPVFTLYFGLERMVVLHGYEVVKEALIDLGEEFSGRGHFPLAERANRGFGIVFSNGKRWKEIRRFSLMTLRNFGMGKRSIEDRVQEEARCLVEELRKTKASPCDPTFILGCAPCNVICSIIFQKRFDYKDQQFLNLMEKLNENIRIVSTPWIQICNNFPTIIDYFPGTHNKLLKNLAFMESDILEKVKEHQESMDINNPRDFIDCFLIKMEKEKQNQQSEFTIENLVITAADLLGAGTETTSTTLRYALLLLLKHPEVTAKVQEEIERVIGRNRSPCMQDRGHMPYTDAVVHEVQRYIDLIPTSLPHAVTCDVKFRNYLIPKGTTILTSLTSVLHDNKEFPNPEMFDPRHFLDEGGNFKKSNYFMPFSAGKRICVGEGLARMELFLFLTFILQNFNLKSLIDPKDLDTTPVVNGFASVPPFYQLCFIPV

CYP2C9 = CYP2C9 (Homo sapiens, UniProt P11712); assay: Inhibition of CYP2C9 (unknown origin) assessed as enzyme activity at 10 uM relative to control; type: ADME; set-up: scale not given: the % may be the effect or the level left; settings: read-out: Activity
Sequence of CYP2C9 (P11712 whole entry): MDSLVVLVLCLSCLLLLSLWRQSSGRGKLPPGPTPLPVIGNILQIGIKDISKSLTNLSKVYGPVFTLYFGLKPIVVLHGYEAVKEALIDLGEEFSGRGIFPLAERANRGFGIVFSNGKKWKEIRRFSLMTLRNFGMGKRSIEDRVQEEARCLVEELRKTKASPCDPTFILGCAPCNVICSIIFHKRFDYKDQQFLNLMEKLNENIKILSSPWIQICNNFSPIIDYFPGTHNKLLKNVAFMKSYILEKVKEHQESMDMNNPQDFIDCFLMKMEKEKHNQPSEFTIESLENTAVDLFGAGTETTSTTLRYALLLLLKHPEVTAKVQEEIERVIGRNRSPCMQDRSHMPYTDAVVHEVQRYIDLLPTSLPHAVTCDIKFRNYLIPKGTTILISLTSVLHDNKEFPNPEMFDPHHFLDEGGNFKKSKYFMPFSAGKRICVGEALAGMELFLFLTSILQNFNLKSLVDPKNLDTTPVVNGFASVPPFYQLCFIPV

SMILES: COc1ccnc(S(=O)(=O)/C=C/c2ccc(Cl)cc2)c1
- remaining at 0.5 h [1]: 37.8%
- activity at 10 µM (CYP1A2): 49%
- activity at 10 µM (CYP3A4): 85.8%
- remaining at 0.5 h [2]: > 99%
- remaining at 0.5 h [3]: 18.8%
- pEC50 [4]: 5.91
- activity at 10 µM (CYP2D6): 98.5%
- remaining at 0.5 h [5]: > 99%
- activity at 10 µM (CYP2C19): 10.5%
- activity at 10 µM (CYP2C9): > 99%

SMILES: COc1ccc(S(=O)(=O)/C=C/c2ccccc2Cl)nc1
- remaining at 0.5 h [1]: 9.5%
- activity at 10 µM (CYP1A2): 46.1%
- activity at 10 µM (CYP3A4): 58.8%
- remaining at 0.5 h [2]: > 99%
- remaining at 0.5 h [3]: 5.6%
- pEC50 [4]: 6.89
- activity at 10 µM (CYP2D6): 100%
- remaining at 0.5 h [5]: > 99%
- activity at 10 µM (CYP2C19): 5.4%
- activity at 10 µM (CYP2C9): > 99%

SMILES: COc1cccc(S(=O)(=O)/C=C/c2ncccc2C(F)(F)F)n1
- remaining at 0.5 h [1]: 38.8%
- activity at 10 µM (CYP1A2): 18.2%
- activity at 10 µM (CYP3A4): 32.5%
- remaining at 0.5 h [2]: 82.7%
- remaining at 0.5 h [3]: 4%
- pEC50 [4]: 6.71
- activity at 10 µM (CYP2D6): > 99%
- remaining at 0.5 h [5]: 94.2%
- activity at 10 µM (CYP2C19): 15.1%
- activity at 10 µM (CYP2C9): 81.9%

SMILES: COc1cccnc1S(=O)(=O)/C=C/c1ccccc1Cl
- remaining at 0.5 h [1]: 83.1%
- activity at 10 µM (CYP1A2): 71.8%
- activity at 10 µM (CYP3A4): 87.1%
- remaining at 0.5 h [2]: > 99%
- remaining at 0.5 h [3]: 34.4%
- pEC50 [4]: 7.12
- activity at 10 µM (CYP2D6): 93.4%
- remaining at 0.5 h [5]: 92.4%
- activity at 10 µM (CYP2C19): 60.7%
- activity at 10 µM (CYP2C9): 59.7%

SMILES: COc1ccnc(S(=O)(=O)/C=C/c2ncccc2C(F)(F)F)c1
- remaining at 0.5 h [1]: 63.2%
- activity at 10 µM (CYP1A2): 72.2%
- activity at 10 µM (CYP3A4): 83.2%
- remaining at 0.5 h [2]: 82.4%
- remaining at 0.5 h [3]: 19%
- pEC50 [4]: 6.76
- activity at 10 µM (CYP2D6): > 99%
- remaining at 0.5 h [5]: 90.9%
- activity at 10 µM (CYP2C19): 29.8%
- activity at 10 µM (CYP2C9): 31%

SMILES: COc1ccnc(S(=O)(=O)/C=C/c2ccccc2Cl)c1
- remaining at 0.5 h [1]: 22.8%
- activity at 10 µM (CYP1A2): 28.5%
- activity at 10 µM (CYP3A4): 49.8%
- remaining at 0.5 h [2]: 96.5%
- remaining at 0.5 h [3]: 2.2%
- pEC50 [4]: 7.24
- activity at 10 µM (CYP2D6): 97.5%
- remaining at 0.5 h [5]: > 99%
- activity at 10 µM (CYP2C19): 11.1%
- activity at 10 µM (CYP2C9): 73.6%

SMILES: COc1ccnc(S(=O)(=O)/C=C/c2ccc(Cl)cn2)c1
- remaining at 0.5 h [1]: 70.3%
- activity at 10 µM (CYP1A2): 33.3%
- activity at 10 µM (CYP3A4): 95.1%
- remaining at 0.5 h [2]: 84.8%
- remaining at 0.5 h [3]: 67.6%
- pEC50 [4]: 5.88
- activity at 10 µM (CYP2D6): 96.3%
- remaining at 0.5 h [5]: 91.1%
- activity at 10 µM (CYP2C19): 10.7%
- activity at 10 µM (CYP2C9): > 99%

SMILES: COc1cccnc1S(=O)(=O)/C=C/c1ccccc1C(F)(F)F
- remaining at 0.5 h [1]: 52.9%
- activity at 10 µM (CYP1A2): 71.2%
- activity at 10 µM (CYP3A4): 76%
- remaining at 0.5 h [2]: 93.5%
- remaining at 0.5 h [3]: 17.8%
- pEC50 [4]: 6.84
- activity at 10 µM (CYP2D6): 99.1%
- remaining at 0.5 h [5]: 96.8%
- activity at 10 µM (CYP2C19): 59.1%
- activity at 10 µM (CYP2C9): 79.2%

SMILES: COc1cccnc1S(=O)(=O)/C=C/c1ccccc1F
- remaining at 0.5 h [1]: 89.4%
- activity at 10 µM (CYP1A2): 79.4%
- activity at 10 µM (CYP3A4): 89.8%
- remaining at 0.5 h [2]: 93%
- remaining at 0.5 h [3]: 63.6%
- pEC50 [4]: 6.10
- activity at 10 µM (CYP2D6): 98.8%
- remaining at 0.5 h [5]: 95.9%
- activity at 10 µM (CYP2C19): 68.4%
- activity at 10 µM (CYP2C9): 79.7%

SMILES: COc1ncccc1S(=O)(=O)/C=C/c1ncccc1C(F)(F)F
- remaining at 0.5 h [1]: 59.4%
- activity at 10 µM (CYP1A2): 57.3%
- activity at 10 µM (CYP3A4): 51.7%
- remaining at 0.5 h [2]: 88.6%
- remaining at 0.5 h [3]: 29.9%
- pEC50 [4]: 6.67
- activity at 10 µM (CYP2D6): > 99%
- remaining at 0.5 h [5]: 97.4%
- activity at 10 µM (CYP2C19): 17.6%
- activity at 10 µM (CYP2C9): > 99%

SMILES: COc1ccc(S(=O)(=O)/C=C/c2ncccc2Cl)nc1
- remaining at 0.5 h [1]: 48.1%
- activity at 10 µM (CYP1A2): 74.2%
- activity at 10 µM (CYP3A4): 72.6%
- remaining at 0.5 h [2]: 91.5%
- remaining at 0.5 h [3]: 44%
- pEC50 [4]: 7.48
- activity at 10 µM (CYP2D6): > 99%
- remaining at 0.5 h [5]: 96.7%
- activity at 10 µM (CYP2C19): 29%
- activity at 10 µM (CYP2C9): > 99%

SMILES: COc1ccnc(S(=O)(=O)/C=C/c2ccccc2C(F)(F)F)c1
- remaining at 0.5 h [1]: 58.5%
- activity at 10 µM (CYP1A2): 33.8%
- activity at 10 µM (CYP3A4): 39.8%
- remaining at 0.5 h [2]: 95.3%
- remaining at 0.5 h [3]: 1.6%
- pEC50 [4]: 6.94
- activity at 10 µM (CYP2D6): 96.3%
- remaining at 0.5 h [5]: 99%
- activity at 10 µM (CYP2C19): 14.9%
- activity at 10 µM (CYP2C9): 38.2%

SMILES: COc1ccnc(S(=O)(=O)/C=C/c2cccnc2Cl)c1
- remaining at 0.5 h [1]: 76.6%
- activity at 10 µM (CYP1A2): 81%
- activity at 10 µM (CYP3A4): 91.5%
- remaining at 0.5 h [2]: 91.9%
- remaining at 0.5 h [3]: 61.4%
- pEC50 [4]: 7.31
- activity at 10 µM (CYP2D6): 99.8%
- remaining at 0.5 h [5]: 99%
- activity at 10 µM (CYP2C19): 30.2%
- activity at 10 µM (CYP2C9): > 99%
